This is an account of results in PMC4671274 (Molecular microbiology, 2015).

This test has as its target Rv0888 (SpmT) (Mycobacterium tuberculosis, UniProt P9WKQ1).

By Km is commonly meant the substrate concentration at which the rate is half of its maximum.

Rv0888 (SpmT), sequence (P9WKQ1 32-490 limits assumed): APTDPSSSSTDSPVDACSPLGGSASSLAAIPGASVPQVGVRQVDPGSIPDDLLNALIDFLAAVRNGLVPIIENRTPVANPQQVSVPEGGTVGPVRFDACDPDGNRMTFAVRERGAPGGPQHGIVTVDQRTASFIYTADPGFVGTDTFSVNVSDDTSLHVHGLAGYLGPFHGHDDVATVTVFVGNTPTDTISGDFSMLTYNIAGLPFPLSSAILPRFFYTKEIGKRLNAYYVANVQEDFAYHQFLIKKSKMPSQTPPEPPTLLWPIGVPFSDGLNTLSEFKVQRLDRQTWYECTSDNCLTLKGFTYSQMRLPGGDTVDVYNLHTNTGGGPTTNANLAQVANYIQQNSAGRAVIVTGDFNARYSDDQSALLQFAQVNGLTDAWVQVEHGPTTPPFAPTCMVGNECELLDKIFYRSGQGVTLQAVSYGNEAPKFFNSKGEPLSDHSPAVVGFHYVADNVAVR

As for sphingomyelin, the Km came out at 671 µM.
